PubChem BioAssay (NCI)
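Here, GI50 denotes the concentration required for 50% inhibition of growth. Definition used: TGI = concentration required for complete inhibition of growth.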

Key:
Assay in all cases: NCI tumour cell line growth inhibition, 384-well format
SW-620 colon = tested on: SW-620 colon
K-562 leukemia = tested on: K-562 leukemia
SF-268 CNS = tested on: SF-268 CNS
MALME-3M melanoma = tested on: MALME-3M melanoma
MDA-MB-435 melanoma = tested on: MDA-MB-435 melanoma
SF-295 CNS = tested on: SF-295 CNS
NCI/ADR-RES ovarian = tested on: NCI/ADR-RES ovarian
MCF7 breast = tested on: MCF7 breast
A498 renal = tested on: A498 renal
UO-31 renal = tested on: UO-31 renal
NCI-H23 lung = tested on: NCI-H23 lung
OVCAR-3 ovarian = tested on: OVCAR-3 ovarian
T-47D breast = tested on: T-47D breast
SNB-75 CNS = tested on: SNB-75 CNS
HCC-2998 colon = tested on: HCC-2998 colon
DU-145 prostate = tested on: DU-145 prostate
M14 melanoma = tested on: M14 melanoma
BT-549 breast = tested on: BT-549 breast
SK-OV-3 ovarian = tested on: SK-OV-3 ovarian
UACC-62 melanoma = tested on: UACC-62 melanoma
EKVX NSCLC = tested on: EKVX NSCLC
ACHN renal = tested on: ACHN renal
HCT-15 colon = tested on: HCT-15 colon
NCI-H226 lung = tested on: NCI-H226 lung
PC-3 prostate = tested on: PC-3 prostate
RPMI-8226 leukemia = tested on: RPMI-8226 leukemia
NCI-H322M lung = tested on: NCI-H322M lung
NCI-H522 lung = tested on: NCI-H522 lung
RXF 393 renal = tested on: RXF 393 renal

With Nc1ncccc1-c1nc2ccc(-c3ccccc3)nc2n1-c1ccc(C2(N)CCC2)cc1 the GI50 (SW-620 colon) was 1790 nM, the TGI (SW-620 colon) was 3180 nM and the GI50 (K-562 leukemia) was 1600 nM. The TGI (K-562 leukemia) was 2950 nM, the GI50 (SF-268 CNS) was 1590 nM and the TGI (SF-268 CNS) was 2960 nM. The GI50 (MALME-3M melanoma) was 464 nM, the TGI (MALME-3M melanoma) was 1910 nM and the GI50 (MDA-MB-435 melanoma) was 1750 nM. The TGI (MDA-MB-435 melanoma) was 3130 nM, the GI50 (SF-295 CNS) was 1050 nM and the TGI (SF-295 CNS) was 2230 nM. For the same compound, the GI50 (NCI/ADR-RES ovarian) was 1950 nM, the TGI (NCI/ADR-RES ovarian) was 4120 nM and the GI50 (MCF7 breast) was 96.3 nM. The TGI (MCF7 breast) was 1540 nM, the GI50 (A498 renal) was 234 nM and the TGI (A498 renal) was 1310 nM. It also gave a GI50 (UO-31 renal) of 1320 nM, a TGI (UO-31 renal) of 2600 nM and a GI50 (NCI-H23 lung) of 2400 nM. For the same compound, the TGI (NCI-H23 lung) was 8070 nM, the GI50 (OVCAR-3 ovarian) was 476 nM and the TGI (OVCAR-3 ovarian) was 2050 nM. The GI50 (T-47D breast) was 35.5 nM, the TGI (T-47D breast) was 1040 nM and the GI50 (SNB-75 CNS) was 597 nM. It also gave a TGI (SNB-75 CNS) of 2020 nM, a GI50 (HCC-2998 colon) of 1350 nM and a TGI (HCC-2998 colon) of 2640 nM. The GI50 (DU-145 prostate) was 2420 nM, the TGI (DU-145 prostate) was 8300 nM and the GI50 (M14 melanoma) was 1370 nM. The TGI (M14 melanoma) was 2660 nM, the GI50 (BT-549 breast) was 1050 nM and the TGI (BT-549 breast) was 2250 nM. For the same compound, the GI50 (SK-OV-3 ovarian) was 547 nM, the TGI (SK-OV-3 ovarian) was 2190 nM and the GI50 (UACC-62 melanoma) was 1160 nM. The TGI (UACC-62 melanoma) was 2390 nM, the GI50 (EKVX NSCLC) was 1640 nM and the TGI (EKVX NSCLC) was 5080 nM. For the same compound, the GI50 (ACHN renal) was 1720 nM, the TGI (ACHN renal) was 4040 nM and the GI50 (HCT-15 colon) was 1240 nM. The TGI (HCT-15 colon) was 2490 nM, the GI50 (NCI-H226 lung) was 1420 nM and the TGI (NCI-H226 lung) was 3340 nM. For the same compound, the GI50 (PC-3 prostate) was 139 nM, the TGI (PC-3 prostate) was 1630 nM and the GI50 (RPMI-8226 leukemia) was 1420 nM. For the same compound, the TGI (RPMI-8226 leukemia) was 2720 nM, the GI50 (NCI-H322M lung) was 1380 nM and the TGI (NCI-H322M lung) was 2960 nM. For the same compound, the GI50 (NCI-H522 lung) was 1560 nM, the TGI (NCI-H522 lung) was 2900 nM and the GI50 (RXF 393 renal) was 582 nM. It also gave a TGI (RXF 393 renal) of 1910 nM.
